Laboratory results reported in patent US8501722B2, “Methods and compositions for treating bacterial infection” (priority 2009, dated 2013).

Legend:
[1] = test system: SKKanGAS; assay: Growth-based turbidometric screen, SKKanGAS under kanamycin (kanamycin resistance gene under ska promoter); assay type: cell-based, Group A Streptococcus; details: dose response under kanamycin selection, FIG. 11
From the text: A GAS strain was generated to have kanamycin resistance gene under the control of ski promoter to be used to screen for SK inhibitors. A transgenic GAS has been generated in SK(+)GAS host so that kanamycin resistance gene is driven by ska promoter in an extrachromosomal plasmid. The engineered GAS strain (SKKanGAS) was also kanamycin resistant. This kanamycin resistance gene in SK(−)GAS strain is within the omega-Km2 element whose promoter is independent of ska promoter (Khil et al., J. Infect. Dis. 2003; 188:497-505; Ringdahl et al., J. Biol. Chem. 1998; 273:6424-6430). As a result, SK(−)GAS can serve as a control in the screen for SK promoter to weed out compounds that inhibit GAS growth or interfere with kanamycin resistance protein function. […] A cutoff criterion was set to select compounds that can inhibit 50% growth in SKKanGAS while inhibiting less than 10% growth in SK(−)GAS. A total of 95 compounds met this criterion. As a result, these compounds were chosen for dose response assays and pIC50 of growth inhibition of each hit compound was then estimated. […] An example is given as FIG. 10.
Only SKKanGAS is used for screening in the primary screening. Briefly, 30 μl THY medium containing 20 μg/ml kanamycin is first plated into 384-well plates (384 microtiter plate, Corning #3701) and compounds are added into the wells. SKKanGAS strain is grown to OD600 nm=0.8. SKKanGAS is then diluted 12.5 fold into 20 μg/ml kanamycin THY medium. SKKanGAS mixture (10 μl) is added into each well of the 384-well plates. […] The plates are cultured at 37° C. for 16-20 hours. Growth of bacteria in each well is measured by absorbance at 600 nm. Z′>0.5, which is compatible with high throughput screening, has been typically obtained with the 384-well plate format in which 55,000 small compounds have been screened. […] SKKanGAS is a BSL2 level agent and can be stored at −80° C. SKKanGAS can be cultured at 37° C. in THY or Bill medium which is commercially available (Fisher Scientific, Pittsburgh, Pa.).
Once hit compounds have been identified by the primary screening, they are applied to dose response assays with both SKKanGAS and SK(−)GAS stains. SKKanGAS and SK(−)GAS are grown in 20 μg/ml kanamycin with serial dilution of hit compounds (DMSO final concentration=1% in THY medium). Plates are incubated at 37° C. for 15-20 hours in a climate controlled room (humidity 50%). The absorbance is measured at 600 nm. pIC50 of growth inhibition of each hit compound is then determined. Compounds that with at least 10 fold lower IC50 in SKKanGAS than SK(−)GAS strain are identified and subjected to secondary confirmatory assay. As a result, dose response assay identifies and eliminates most nonspecific compounds that may inhibit GAS growth or interfere with kanamycin resistance protein function.

[2] = test system: SK(+)GAS (UMAA2616); assay: Survival of human plasminogen transgenic (Tg+) mice infected with GAS; assay type: in vivo; details: 6*10^5 CFU SK(+)GAS; 5 μg per mouse intraperitoneally daily for 5 days, starting one day after infection
Method: To examine the in vivo efficacy of compounds CCGC, CCGE, and CCGF, Tg+ mice were first infected with 6*10^5 CFU SK(+)GAS, then injected with 5 μg of test compound per mouse intraperitoneally daily for 5 days, starting one day after infection. […] In some embodiments, small compound are delivered continuously through an ALZET® Osmotic Pump (DURECT Corporation, Cupertino, Calif.).
Tg+ mice are then used to test the efficacy of compounds in attenuating the virulence of GAS infection. 20 Tg+ mice are infected with 10^5 CFU of SK(+)GAS then injected with the estimated experimental doses of the compounds two hours later. Survival is monitored for 9 days, while a control group of Tg+ mice will be infected with SK(+)GAS injected with DMSO. The comparison of mortalities between the two groups is analyzed as described above in the toxicity test. Treating mice with compound post-infection helps avoid potential side-effects of toxic or growth inhibition of compound on SK(+)GAS at the time of infection. As a result, the effect of compound on mice survival is a more authentic reflection of the efficacy of compound on inhibiting GAS virulence. Possible scenarios include:
This example describes the in vivo efficacy of compound 575096. Human plasminogen transgenic mice (Tg+) were first infected with 10^5″^6 CFUUMAA2616, then injected with 5-30 lag of test compound per mouse intraperitoneally daily for 5 days, starting one day after infection.

Row | Compound | effect on SKKanGAS and SK-GAS growth [1] | survival rate of Tg+ mice compared to DMSO control group [2]
1 | C=CCn1c(SCCCC)nc2c(c1=O)C1(CCCCC1)Cc1ccccc1-2 [CCGE] | specific inhibition of SKKanGAS growth under kanamycin selection | significant improvement in survival rate
2 | COc1cc(C=CC(=O)c2cc(C)c(C)cc2C)cc(OC)c1OC [CCGF] | specific inhibition of SKKanGAS growth under kanamycin selection | trend toward improvement
